The values that follow come from US8741843B2, “Compositions and methods for inducing angiogenesis” (priority 2006, dated 2014).

Experiment [1] relates to mouse ischemic hind limb. In words: Histological assessment of angiogenesis in ischemic hind limb (von Willebrand Factor VIII staining). Type of experiment: in vivo. The procedure:
FIG. 8 is a graph depicting histological assessment of angiogenesis in the ischemic hind limb treated with ADOPep1. Mice were subjected to hind limb ligation and ADOPep administration as described in FIG. 7 and at the noted days (0, 7, 14 and 21 days) post hind limb ligation the mice were sacrificed and legs were embedded in paraffin. Sections were stained with anti von Willebrand factor and the number of Factor VIII positive vessels was determined using the Image Pro Plus software. Shown are the average blood vessel densities (of 10 individual microscopical fields per sample) expressed as number of capillaries per millimeter squared in histological sections of mouse hind limb ischemia treated with ADOPep1.
FIGS. 9a-b are microscopical images of histological sections subjected to von Willebrand Factor immuno-staining of mouse hind limb ischemia 21 days following injection of ADOPep1 (FIG. 9a) or PBS (FIG. 9b). […]
Limbs from mice treated with ADOPep 1, 3 or control mice injected with PBS were sacrificed at 7, 14 and 21 days post operation. […] Vessel densities were expressed as capillaries per millimeter squared. To obtain the average vessel number per cross-section area, a minimum of ten individual fields were sampled, and Image Pro-Plus (MediaCybernetics, Silver spring, MD, USA) was used to measure the counted area. The number of Factor VIII positive vessels was counted.

For experiment [2], the system named is endothelial cells. The experiment is described as follows: CoCl2-induced apoptosis of endothelial cells (Annexin-FITC/PI FACS). Type of experiment: cell-based, human. Particulars: normoxia, 100 micromolar per 100,000 cells CoCl2, 10 ng/ml peptide 24 hours. The protocol: FIGS. 33a-f are representative FACS analyses depicting a specific inhibition of hypoxia-induced apoptosis of endothelial cells by ADOPep1. Endothelial cells in Petri dishes were incubated for 24 hours with 5% FCS in supplement-free endothelial cell growth medium under normoxia (FIGS. 33a and d), exposed to 24 hours hypoxia (Figures c and f) or incubated under normoxia with 100 micromolar per 100,000 cells CoCl2 (FIGS. 33b and e), in the absence (FIGS. 33a-c) or presence (FIGS. 33d-f) of 10 ng/ml Adopep1 peptide (for 24 hours). Cells were trypsinized and immediately re-suspended in PBS with 5% FCS and 0.1% Na-azide. Samples containing 100,000 cells were tested for apoptosis using the Annexin-FITC (X axis) and propidium iodide (Y axis) kit (Bender Medsystems, Vienna, Austria), according to manufacturer's instructions. Results were analyzed by FACScan (Beckton Dickinson).
FIG. 34 is a histogram depicting the FACS results of the experiments described in FIGS. 33a-f. Data represents average±SD of 2 experiments.

The test system of experiment [3] is mouse ischemic hind limb. The experiment is described as follows: Mouse hind-limb ischemia model, laser Doppler blood perfusion. The class given is in vivo. Particulars: 0.1 microgram/mouse i.m., day 21 after surgery, vs PBS. The protocol:
A mouse hind limb model was created by excision of femoral artery of C57B1 mouse hind limb, the non-operated limb served as a control. ADOPep1 (SEQ ID NO:2; red symbols) and 3 (SEQ ID NO:4; green symbols) were injected intra-muscularly one day after surgery at 0.1 (squares) and 1 (circles) micrograms/mouse. Injection of PBS (black diamond) was used as a control. Blood flow was measured using a laser Doppler immediately (T0) or at 7 (T7), 14 (T14) and 21 (T21) days after surgery. The average perfusion of each limb was determined and the perfusion ratio [expressed as Relative Perfusion (ischemic left/control right leg)] was plotted against time.
A mouse hind limb ischemia model was used. Ischemia was created in the C57B1 strain mouse by ligation and excision of the femoral artery on the left hind limb. The right hind limb served as a control. A day after the operation ADOPep1 and 3 were injected intramuscular at a site close to the operation. […] The blood perfusion was measured using a Laser Doppler Blood perfusion analyzer (Perimed, Sweden) one day post operation and 7, 14, 21 days post operation. The average perfusion of each limb was computed and percent perfusion ratio was expressed as the ischemic (left)/control (right) percent perfusion ratio.

“Also recorded” adds a separate entry of the source.

With “HWRRAHLLPRLP [ADOPep1, ADAM15 derived peptide, amino acids 286-297 of the metalloprotease domain]”, in experiment [1] (0.1 μg per mouse, days 7, 14, 21, vs PBS), the “blood vessel density (number of blood vessels per area)” value is given as “significant increase (p<0.05) in the number of blood vessels; also recorded: significant increase in the blood vessel density”. Moreover, the “von Willebrand Factor staining of small vessels” value in experiment [1] (21 days following injection, vs PBS) is listed as “higher von Willebrand Factor Positive stained small vessels; also recorded: significantly higher von Willebrand Factor staining of small vessels”. Also, the “effect on CoCl2 induced apoptosis” value in experiment [2] is “no effect on apoptosis induced by CoCl2; also recorded: not the CoCl2 induced apoptosis”; in experiment [2] (listed as AdoPep1) it was “did not inhibit apoptosis of endothelial cells exposed to the apoptotic inducer Cobalt-Chloride”. Besides, the “blood perfusion ratio (ischemic left/control right)” value in experiment [3] was “significant increase in the blood perfusion ratio; also recorded: significant increase in blood perfusion (p<0.05)”.
